Assay results published in patent US9752236B2, “Corrosion inhibitors” (Rhodia Operations, priority 2010, dated 2017).

Legend:
[1] = Linear Polarisation Resistance (LPR) bubble test, corrosion inhibition under oilfield conditions; conditions: 20 ppm actives; 5% NaCl brine/Isopar M 9:1; 60° C.; constant CO2; 15 hours
Protocol: [formula] where baseline corrosion was calculated by taking the average corrosion rate of each cell before the corrosion inhibitors were introduced.
The same tests as described in Example 1 were carried out on the products set out in Table 3 below.

[2] = Static acid immersion test in 5% w/w HCl; conditions: 50° C., 24 hours, 2000 ppm w/w active inhibitor
Protocol: (§1) Static acid immersion tests were used to compare the corrosion inhibition performance of various sulfosuccinates in 5% w/w HCl to the industry standard propargyl alcohol (2-propyn-1-ol) and the corrosion inhibitor Stannine® ETH, which is a blend of amine salts and aliphatic alcohols and is available from Rhodia Novecare.
(§2) • A control solution of 5% w/w HCl was prepared by diluting 37% w/w HCl with deionised water. • An inhibited solution of 5% w/w HCl & 2000 ppm w/w active corrosion inhibitor was then prepared for each of the corrosion inhibitors being evaluated. Stannine® ETH was used at 2000 ppm w/w solids as the active content of Stannine® ETH is unknown. • Each solution was then split evenly between 2 Schott bottles (for duplicate runs) and a pre-weighed C1018 mild steel coupon was placed in each so that it was completely submerged. • The Schott bottles were then sealed tightly and stored for 24 hours in an oven set at 50° C. • After the allotted time the coupons were removed from the oven and cleaned using deionised water, HCl cleaning solution and acetone. The HCl cleaning solution had been made by dissolving 5 g SnCl2 and 2 g SbCl3 in 100 ml of 37% w/w HCl. • The coupons were then oven dried before re-weighing with the average weight change of the duplicate coupons being used to calculate the corrosion rate. The above process was then repeated using (a) 5% w/w H2SO4 and (b) 5% w/w acetic acid instead of HCl.

[3] = Static acid immersion test in 5% w/w H2SO4; conditions: 5% w/w H2SO4, 50° C., 24 hours, 2000 ppm w/w active inhibitor
Protocol: as §1, §2

[4] = Static acid immersion test in 5% w/w acetic acid; conditions: 50° C., 24 hours, 2000 ppm w/w active inhibitor
Protocol: as §1, §2

Compound | corrosion rate (LPR), in words [1] | % Efficiency [2] | Corrosion rate [2] | % Efficiency [3] | Corrosion rate [3] | % Efficiency [4] | Corrosion rate [4] | % Efficiency ([3]; listed as propargyl alcohol)
CCCCCCCC/C=C\CCCCCCCC(=O)NCCOC(=O)C(CC(=O)[O-])S(=O)(=O)[O-].[Na+].[Na+] (stereo not shown) [Disodium oleamido MEA sulfosuccinate] | significantly reduce corrosion rates, although they do not perform quite as well as the industry standard | 88.0% | 171.5 mils/y | 65.2% | 669.3 mils/y | 56.7% | 60.7 mils/y | 
Disodium ricinoleamido MEA sulfosuccinate | significantly reduce the corrosion rate and have a performance very similar to the industry standard | 84.4% | 221.4 mils/y | 81.1% | 362.5 mils/y | 77.2% | 32.0 mils/y | 
Disodium cocamido MIPA sulfosuccinate | significantly reduce the corrosion rate and have a performance very similar to the industry standard |  |  |  |  |  |  | 
Disodium oleamido MIPA sulfosuccinate | significantly reduce the corrosion rate and have a performance very similar to the industry standard | 88.5% | 163.3 mils/y | 68.4% | 607.0 mils/y | 70.9% | 40.9 mils/y | 
Disodium laureth sulfosuccinate | significantly reduce the corrosion rate and have a performance very similar to the industry standard |  |  |  |  |  |  | 
C#CCO [Propargyl alcohol, 2-propyn-1-ol, reference compound] |  |  | 9.5 mils/y | 18.0% | 1575.2 mils/y |  |  | not performing well as an inhibitor in this environment
Disodium oleth 9 sulfosuccinate | significantly reduce corrosion rates, although they do not perform quite as well as the industry standard |  |  |  |  |  |  | 
